What follows are compounds tested on KB (assay: Cytotoxicity against human KB cells).
Type: functional, cell-based

First: CCCC(=O)N[C@@H](C(C)C)[C@H](CC(=O)OC[C@@H](O)c1nc(C(=O)O[C@@H](CCCC(C)(Cl)Cl)[C@@H](C)C(=O)O[C@@H](c2nc(C(=O)OC)cs2)[C@](C)(O)CC)cs1)OC(C)=O [LYNGBYABELLIN D]
Second: CC[C@H](C)[C@@H](C(=O)N1CCC[C@H]1c1nccs1)N(C)C(=O)[C@H](CC(C)C)N(C)C(=O)[C@H](Cc1ccc(OC)cc1)N(C)C(=O)/C=C(\C)OC [LYNGBYAPEPTIN A]
The IC50 of the first is lower: 100 nM for the first, over 5000 nM for the second.

Work on `CC[C@H](C)[C@@H](C(=O)N1CCC[C@H]1c1nccs1)N(C)C(=O)[C@H](CC(C)C)N(C)C(=O)[C@H](Cc1ccc(O)cc1)N(C)C(=O)/C=C(\C)OC` [15-NORLYNGBYAPEPTIN A] yielded an IC50 of 1300 nM.
